According to patent US20260146236A1, “HUMAN SEBACEOUS GLAND CARCINOMA CELL LINE AND US THEREOF” (SHANGHAI NINTH PEOPLE'S HOSPITAL, SHANGHAI JIAOTONG …, priority 2023, published 2026):
Like-named read-outs stand apart in the source and are kept apart here.

Assays:
[1] = test system: sebaceous gland carcinoma cell line SHNPH-SeC; test: Drug sensitivity test of SHNPH-SeC cells (CCK-8 cell viability); type: cell-based, human; settings: 48 h, cell viability by CCK-8, read-out: Half-maximal effective concentration (EC50)
Description: Cells in a logarithmic growth phase were harvested and prepared into a cell suspension at a concentration of 2×10^4 cells/mL. The cell suspension was inoculated into a 96-well plate at 100 μL/well. The cell proliferation in the 96-well plate was measured by the CCK-8 method on day 0, day 1, day 2, day 3, and day 4. The CCK-8 method was performed according to instructions of a kit. Specifically, a sample was incubated with 10 μL of a CCK-8 solution for 2 h in a 37° C. and 5% CO2 incubator, and an OD value was then measured at 450 nm. As shown in the growth curve of FIG. 3A, the sebaceous gland carcinoma cell line SHNPH-SeC required a doubling time of approximately 36 h, indicating a strong proliferative capacity.
Cells in a logarithmic growth phase were collected and prepared into a cell suspension with a concentration of 2×10^4 cells/mL. […] When a cell density reached approximately 80%, MMC was added to each well at concentrations of 0 μmol/L, 0.15625 μmol/L, 0.3125 μmol/L, 0.625 μmol/L, 1.25 μmol/L, 2.5 μmol/L, 5 μmol/L, 10 μmol/L, and 20 μmol/L or 5-FU was added to each well at concentrations of 0 μmol/L, 5 μmol/L, 10 μmol/L, 20 μmol/L, 40 μmol/L, 80 μmol/L, 160 μmol/L, 320 μmol/L, and 640 μmol/L. 48 h later, a cell viability in each well was detected by the CCK-8 method, with a specific process as described in section 2.3. […]

[2] = test system: sebaceous gland carcinoma cell line BP50 without a TP53 mutation; settings: BP50 cells without a TP53 mutation, previously reported; cited from earlier work

## O=c1[nH]cc(F)c(=O)[nH]1 [5-FU, 5-fluorouracil]
[1]; Homo sapiens
  EC50: 83 µM

## CO[C@@]12[C@H](COC(N)=O)C3=C(C(=O)C(C)=C(N)C3=O)N1C[C@@H]1N[C@@H]12 [MMC, mitomycin C]
[1]
  EC50: 1.13 µM
[2]
  EC50: 10.4 µM
